Where two headings read alike, the source gives them in different places.
Columns and labels:
strain ENV735 [1] = assay: Growth substrates for ENV735; assay type: cell-based, Hydrogenophaga flava
strain ENV735 [2] = assay: MTBE degradation assays with ENV735 cells; assay type: cell-based, Hydrogenophaga flava
ENV 735 = assay: Membrane bioreactor (MBR1, MBR2) MTBE degradation; parameters: species or system Hydrogenophaga flava
Method: A calculated solids retention time (SRT) of 160 days was maintained by removing a portion of the reactor contents each day. The dissolved oxygen concentration in the reactor was maintained at ˜2 mg/L by adding air.

[3] = system: anaerobic sediment samples; details: the one active anaerobic sediment sample; cited from earlier work
[4] = system: hydrogen-oxidizing microorganism; assay: Bioreactor laboratory testing, continuous operation; details: hydraulic retention time of 2.5 hr to 3 days
From the text: Batch operation can be initiated by inoculating the reactor with the hydrogen-oxidizing microorganism and then adding tertiary butyl alcohol, for example, to a final concentration of from 0.1 to 1% (v/v). The organisms are aerated and allowed to grow until no tertiary butyl alcohol remains in the culture medium. Additional tertiary butyl alcohol can then be added to further increase biomass levels. After sufficient biomass is obtained, a small amount of contaminant (e.g., MTBE) can be added to acclimate the organisms. Additional contaminant can be added after depletion of the prior addition. When sufficient degradation rates are achieved, the reactor can be operated in a continuous mode. Preferably, during continuous and batch operation, the reactor should be operated at a temperature of between 25 and 37° C., with the pH in the range of 6.8 to 7.2, and a dissolved oxygen concentration >2 mg/L. Hydraulic retention time within the reactor should be adjusted to allow sufficient time for degradation of the target compound to below treatment standards. […] Furthermore, the volatile suspended solids (biomass) concentration should be maintained at a relatively high concentration, preferably from 1,000 to 30,000 mg/l depending on the contaminant loading rate.

[5] = system: ENV 735-containing culture from MBR1; assay: Fluid bed bioreactor (FBR) MTBE degradation; details: flow rate increased 3-fold, 1 hr HRT
Method: A laboratory-scale FBR was constructed from a glass column with Teflon and stainless steel tubing and fittings to minimize abiotic losses. […] The carbon was fluidized to an expanded bed height of 125% of the original bed height by using a gear pump in the recycle line. Contaminated water was fed at a rate of 5.6 to 17 mL/min using a peristaltic pump, corresponding to hydraulic retention times (HRTs) of approximately 3 to 1 h, respectively. The HRT was calculated based on expanded bed volume and feed flow rate (assumes no significant biodegradation occurred in other wetted areas of the reactor).

strain ENV735 [6] = assay: TBA degradation by ENV735 cells; assay type: cell-based, Hydrogenophaga flava
strain ENV735 [7] = assay: [14C]MTBE mineralization to 14CO2; assay type: cell-based, Hydrogenophaga flava; details: YE-grown cells, 10 mg/L, within 24 hr
From the text: Cells were collected by centrifugation, washed, and suspended in BSM to an OD550 of 1.0. […] At timed intervals air was passed through the samples and organic compounds and ^14CO2 in the effluent air were trapped (Marinucci, A. C. and R. Bartha, “Apparatus for monitoring the mineralization of volatile ^14C-labeled compounds”, Applied and Environmental Microbiology, 38:1020-1022, (1979)). Oxosol C14 (National Diagnostics, Atlanta, Ga.) served as a CO2 trapping solution and liquid scintillation cocktail. The amount of ^14CO2 produced was quantified by liquid scintillation counting.

[8] = growth of ENV735 on the substrate

Q: For `CCCO` [1-Propanol], which Growth (strain ENV735 [1]; [8]) is on record?
A: Its Growth is “+/−”.

Q: Which Growth (strain ENV735 [1]; [8]) does the source give for `CC(C)(O)C(=O)O` [2-Hydroxy isobutyric acid] here?
A: Its Growth is “+”.

Q: With `CC(C)O` [2-Propanol] as the compound, how does the Growth (strain ENV735 [1]; [8]) read?
A: The Growth was “−”.

Q: With `N[C@@H](CCC(=O)O)C(=O)O` [Glutamic acid] as the compound, how does the Growth (strain ENV735 [1]; [8]) read?
A: The Growth was “+/−”.

Q: For `[HH]` [H2, hydrogen], which “effect of presence of H2 on MTBE degradation” value (strain ENV735 [2]; strain ENV735) is on record?
A: The value was “not inhibited”.

Q: What about the “Growth on H2 as a sole energy source” value (strain ENV735 [1]; strain ENV735) of the same compound?
A: The value was “grew readily”.

Q: With `CCC(C)C` [Iso-Pentane] as the compound, how does the Growth (strain ENV735 [1]; [8]) read?
A: The Growth was “−”.

Q: With `CC(O)C(=O)O` (centres unmarked) [Lactic acid] as the compound, how does the Growth (strain ENV735 [1]; [8]) read?
A: The Growth was “+/−”.

Q: Which results are given for `COC(C)(C)C` [MTBE, methyl-tert-butyl ether]?
A: MTBE removal rate (ENV 735; MBR1, 1 d HRT, influent ˜1000 mg/L): 42 mg/L/h; MTBE removal rate (ENV 735; MBR2, influent ˜2000 mg/L): 28 mg/L/h; MTBE stripping as share of MTBE loss (ENV 735; effluent air of MBRs): < 5%; transformation of MTBE [3]: about 50%; initial maximum MTBE oxidation rate (strain ENV735 [2]; 30° C., YE-grown cells, 25 mg/L MTBE): 86 nmole MTBE/min./mg total cell protein; degradation of influent MTBE [4]: > 90%; Growth (strain ENV735 [1]; [8]): +; removal of added MTBE [5]: > 90%

Q: For `CO` [Methanol], which Growth (strain ENV735 [1]; [8]) is on record?
A: Its Growth is “−”.

Q: For `CCC` [Propane], which Growth (strain ENV735 [1]; [8]) is on record?
A: The Growth was “+/−”.

Q: Which Growth (strain ENV735 [1]; [8]) does the source give for `CCC(=O)O` [Propionic acid] here?
A: Its Growth is “−”.

Q: Which Growth (strain ENV735 [1]; [8]) does the source give for `CC(=O)C(=O)O` [Pyruvic acid] here?
A: The Growth was “+/−”.

Q: Which Growth (strain ENV735 [1]; [8]) does the source give for `CC(=O)[O-].[Na+]` [Sodium acetate] here?
A: Its Growth is “+/−”.

Q: With `OC[C@H]1O[C@@](CO)(O[C@H]2O[C@H](CO)[C@@H](O)[C@H](O)[C@H]2O)[C@@H](O)[C@@H]1O` [Sucrose] as the compound, how does the Growth (strain ENV735 [1]; [8]) read?
A: Its Growth is “+++”.

Q: With `CC(C)(C)O` [TBA, tertiary-butyl alcohol] as the compound, how does the “initial TBA degradation rate” value (strain ENV735 [6]) read?
A: The value was 30 nmoles TBA/min./mg cell protein.

Q: And the Growth (strain ENV735 [1])?
A: The Growth was “+++”.

Q: For `COC(C)(C)C` [[^14C]MTBE], which “added [14C]MTBE recovered as 14CO2” value (strain ENV735 [7]) is on record?
A: Its value is “Approximately 80%”.

Q: For Casein, which Growth (strain ENV735 [1]; [8]) is on record?
A: Its Growth is “+”.

From US6524842B1, “Biodegradation of gasoline oxygenates” (Envirogen, Inc., priority 2000, dated 2003)
